“Also recorded” adds a separate entry of the source.
Assays:
[1] = system: CD3ϵ peptide/Nck1-SH3.1 interaction; assay: SPR competition with CD3ϵ peptide on immobilized Nck1-SH3.1; type: binding, human; details: 100 μM AX-024 co-injected with 100 μM CD3ϵ peptide
Experimental: SPR experiments were conducted on a T200 Biacore instrument (GE Healthcare, Uppsala, Sweden) at 20 °C in 10 mM HEPES/NaOH, pH 7.8, 150 mM NaCl, 1 mM TCEP. His10-Avi-TEV-Nck1-SH3.1 (residues 1–61, MM 11,847 Da) was biotinylated and immobilized via streptavidin on the surface of either a CAP or a SA sensor, prepared according to the manufacturer's instructions (GE Healthcare). Streptavidin is immobilized on the CAP sensor by way of double-strand DNA formation. A ssDNA is covalently coupled to the sensor surface, and a complementary DNA strand, covalently linked to streptavidin, is hybridized. To regenerate the surface, the DNA duplex is dissociated by washing with high-ionic strength solution. Thus, after each titration, fresh biotinylated Nck1-SH3.1 was immobilized on the sensor surface. For CD3ϵ peptide-binding experiments, the surface density of the Nck1-SH3.1 domain was ∼250 response units (RU), whereas for binding experiments with AX-024 and APVA variant peptides, the surface density of Nck1-SH3.1 was increased to 1260 RU. […]
Binding of the CD3ϵ-derived peptide […]-NH2 (CD3ϵ residues 173–188; MM 1864.1 Da) or of the APVA variant […]-NH2 (MM 1811.1 Da) to the immobilized Nck1-SH3.1 domain was monitored in a concentration-dependent manner between 0.4 and 100 μM CD3ϵ peptide (200 μM in the case of the APVA variant peptide). […]

CD4 T cell proliferation = CD4 T cell proliferation by CFSE dilution, anti-CD3 stimulation; type: cell-based, human; details: human CD3+ T cells (n = 4 donors), CFSE dilution gated on CD4, 0.2 μg·ml^−1 plate-bound anti-CD3 (OKT3), no co-stimulation, 4 days, 0.2% DMSO
Experimental: Figure 2. […] CD4 T cell proliferation was assessed upon stimulation with anti-CD3ϵ by CFSE dilution as a measure for cellular proliferation, analyzed on day 4. For rapamycin and AX-024–treated cells, the dashed line indicates control proliferation at a DMSO concentration of 0.2%. For CD3ϵ-derived peptides 11Rwt, 11R085, and 11Rscr, the dashed line indicates control proliferation at 0.3% DMSO, 0.3% PBS. 11Rwt has sequence R11-G3-[…], 11R085 R11-G3-Q(dK)[…], and 11Rscr R11-G3-[…](dK)PQP. A polyarginine tag is used to enable cell penetration of the peptides ([10]). The gray boxes indicate concentrations of compound leading to decreased cell viability. These values should be disregarded. Binding of peptides 11Rwt and 11R085, but not 11Rscr, to Nck-SH3.1 was confirmed by NMR spectroscopy (Fig. S1). Asterisks, p < 0.05 as determined by a repeated-measure one-way analysis of variance with Holm–Sidak's multiple-comparison test to DMSO/PBS. Dotted lines, mean DMSO/PBS values. Error bars, S.D.
Fresh human peripheral blood mononuclear cells (PBMCs) from healthy donors (n = 4) were prepared from buffy coats. CD3^+ T cells were isolated by immunomagnetic separation (negative selection, StemCell, lot 18A87710), carboxyfluorescein succinimidyl ester (CFSE)-labeled, resuspended in StemCell Immunocult^TM-XF T cell expansion medium, and treated with compounds or vehicle for 2 h at room temperature. The isolated CD3^+ T cells were stained for CD3, CD4, and CD8, and their purity was assessed by flow cytometry. Cells were then cultured in a 96-well flat-bottomed plate (10^5 cells/well), precoated for 1 h at 37 °C with 0.2 μg·ml^−1 plate-bound anti-CD3 (clone OKT3, BioLegend). […] Cells were cultured in the presence of AX-024, rapamycin, peptide 11Rwt, peptide 11R85, peptide 11Rscr (derived from Ref. [11]; see below for sequences), or vehicle for 4 days. At the end of culture, cells were stained for viability, and CFSE dilution was assessed by flow cytometry (with gating on CD4 versus CD8).

[2] = system: P-Zap70 in primary T cells; assay: Zap70 phosphorylation in primary T cells, flow cytometry; type: cell-based, human
Experimental: Figure 4. […] Healthy donor PBMCs were isolated rested overnight and pretreated with 20 μM AX-024 or vehicle prior to stimulation with 20 μg·ml^−1 (A) or 10 μg·ml^−1 (B) anti-CD3. The cells were gated on live cells, CD3, and CD4 for assessment of P-Zap70. Error bars, S.D.
Human PBMCs from healthy donors were prepared from 50 ml of fresh blood with Ficoll in Leucosep tubes. The tubes were centrifuged at room temperature (30 min, 800 × g) without brake. Isolated cells were washed and staved overnight. The cells were treated with AX-024 or vehicle and incubated for 1 h at 37 °C followed by further incubation on ice. 10, 25, or 50 μg·ml^−1 anti-CD3-biotin (clone OKT3, BioLegend) was added to the cells on ice for 15 min before neutravidin was added at a final concentration of 20 μg·ml^−1 for cross-linking. After stimulation for 3 min at 37 °C, cells were fixed (BD Cytofix fixation buffer) and permeabilized (TruePhos buffer, BioLegend). Staining was performed with CD3-PerCP (clone SK7, BD), CD4-BUV395 (clone SK3, BD), CD8-BV605 (clone RPAT8, BioLegend), and Zap70-PE (clone 65E4, CST). Flow cytometry and data analysis were done as described above.

COc1ccc2c(c1)C(c1ccc(F)cc1)=C(CN1CCCC1)CO2.Cl [AX-024, 1-((4-(4-fluorophenyl)-6-methoxy-2H-chromen-3-yl)methyl)pyrrolidine hydrochloride]
effect on binding of CD3ϵ peptide to Nck1-SH3.1 (competition) [1]: unaffected by AX-024; also recorded: failed to show an effect on binding of CD3ϵ to immobilized Nck1-SH3.1
inhibition of T cell proliferation (CD4 T cell proliferation): inhibited T cell proliferation
reduction of Zap70 phosphorylation ([2]; PBMCs from healthy donors, 20 μM AX-024 pretreatment, 20 or 10 μg·ml^−1 anti-CD3, gated on live, CD3, CD4): does not significantly reduce Zap70 phosphorylation
reduction of Zap70 phosphorylation ([2]; different stimulation conditions, low anti-CD3, no co-stimulation): none of the conditions tested resulted in significant reduction of Zap70 phosphorylation
